Assay results taken from ChEMBL document CHEMBL1201862, “PubChem BioAssay data set” (2004).
Calls of active or inactive are those of the source.

Assays:
Nonstructural protein 1 = Nonstructural protein 1 (Influenza A virus, UniProt Q194T2); type: functional, Influenza A virus (A/California/07/2009(H1N1))
[1] = molecular target: T1, Short transient receptor potential channel 4 (Mus musculus, UniProt Q9QUQ5); assay: block of DAMGO-driven TRPC4 calcium entry – cell-based, HEK293 TRPC4/mu-opioid, Fluo-4 calcium, dose response (AID 434942); type: functional;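 further: potency of inhibitors blocking the TRPC4 calcium response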
T1 sequence (Q9QUQ5 whole entry): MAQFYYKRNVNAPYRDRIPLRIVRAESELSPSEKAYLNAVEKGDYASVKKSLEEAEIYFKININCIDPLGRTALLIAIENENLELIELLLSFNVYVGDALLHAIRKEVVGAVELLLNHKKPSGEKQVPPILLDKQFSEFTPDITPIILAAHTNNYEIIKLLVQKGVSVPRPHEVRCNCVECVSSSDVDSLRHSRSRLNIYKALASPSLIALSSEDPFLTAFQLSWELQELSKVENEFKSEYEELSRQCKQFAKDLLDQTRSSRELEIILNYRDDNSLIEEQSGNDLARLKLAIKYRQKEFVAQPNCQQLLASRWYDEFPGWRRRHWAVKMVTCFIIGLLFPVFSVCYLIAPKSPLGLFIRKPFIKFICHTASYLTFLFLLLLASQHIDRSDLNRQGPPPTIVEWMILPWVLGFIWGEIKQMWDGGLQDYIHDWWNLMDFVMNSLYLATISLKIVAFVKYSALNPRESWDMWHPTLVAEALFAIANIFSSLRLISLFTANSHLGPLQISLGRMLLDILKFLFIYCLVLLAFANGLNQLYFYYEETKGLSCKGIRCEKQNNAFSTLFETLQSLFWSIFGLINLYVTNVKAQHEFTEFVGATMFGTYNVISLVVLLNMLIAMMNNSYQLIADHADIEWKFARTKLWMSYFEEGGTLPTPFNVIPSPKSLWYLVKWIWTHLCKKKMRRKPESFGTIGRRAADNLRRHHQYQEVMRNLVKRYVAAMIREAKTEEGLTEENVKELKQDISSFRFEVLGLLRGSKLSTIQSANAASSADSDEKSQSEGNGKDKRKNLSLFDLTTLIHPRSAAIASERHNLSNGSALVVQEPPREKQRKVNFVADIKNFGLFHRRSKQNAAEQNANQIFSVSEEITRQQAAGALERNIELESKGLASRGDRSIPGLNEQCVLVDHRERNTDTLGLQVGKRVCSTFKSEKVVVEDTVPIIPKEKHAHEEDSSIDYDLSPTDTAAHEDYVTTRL

[2] = molecular target: Glyceraldehyde-3-phosphate dehydrogenase (Homo sapiens, UniProt P04406)
[3] = molecular target: T2, Carboxy-terminal domain RNA polymerase II polypeptide A small phosphatase 1 (Homo sapiens, UniProt Q9GZU7); assay: CTDSP1 inhibitors, concentration-response, biochemical, absorbance readout, ultra-high-throughput screen actives (AID 540297); type: functional
T2 sequence (Q9GZU7 whole entry): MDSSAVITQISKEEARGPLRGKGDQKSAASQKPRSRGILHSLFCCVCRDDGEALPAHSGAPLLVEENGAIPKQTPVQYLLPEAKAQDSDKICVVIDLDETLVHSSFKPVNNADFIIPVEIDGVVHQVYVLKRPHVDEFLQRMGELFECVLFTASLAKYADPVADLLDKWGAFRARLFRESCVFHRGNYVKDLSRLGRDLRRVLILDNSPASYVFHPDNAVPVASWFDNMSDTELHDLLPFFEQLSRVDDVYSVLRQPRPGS

[4] = HEK-293T viability loss after treatment – luminescence, T-cell screen hits, cytotoxicity control for TCR NF-kB inhibitor project, dose response (AID 489026); type: functional, cell-based;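 further: cells exposed to compound about 14 hours before the viability readout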
[5] = HEK-293T cell viability reduction – luminescence, B-cell screen hits, cytotoxicity control for BCR NF-kB inhibitor project, dose response (AID 489021); type: functional, cell-based;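 further: HEK-293T cells carrying an NF-kB luciferase reporter; cells exposed to compound for about 14 hours before viability readout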
[6] = molecular target: T3, Long-chain-fatty-acid--AMP ligase FadD28 (Mycobacterium tuberculosis, UniProt P9WQ59); assay: Fluorescence polarization aasay to screen for inhibitors that compete for the binding of FadD28 to a bisubstrate Measured in Biochemical System Using Plate Reader - 2147-01_Inhibitor_Dose_CherryPick_Activity.; type: functional, Mycobacterium tuberculosis H37Rv
T3 sequence (P9WQ59 whole entry): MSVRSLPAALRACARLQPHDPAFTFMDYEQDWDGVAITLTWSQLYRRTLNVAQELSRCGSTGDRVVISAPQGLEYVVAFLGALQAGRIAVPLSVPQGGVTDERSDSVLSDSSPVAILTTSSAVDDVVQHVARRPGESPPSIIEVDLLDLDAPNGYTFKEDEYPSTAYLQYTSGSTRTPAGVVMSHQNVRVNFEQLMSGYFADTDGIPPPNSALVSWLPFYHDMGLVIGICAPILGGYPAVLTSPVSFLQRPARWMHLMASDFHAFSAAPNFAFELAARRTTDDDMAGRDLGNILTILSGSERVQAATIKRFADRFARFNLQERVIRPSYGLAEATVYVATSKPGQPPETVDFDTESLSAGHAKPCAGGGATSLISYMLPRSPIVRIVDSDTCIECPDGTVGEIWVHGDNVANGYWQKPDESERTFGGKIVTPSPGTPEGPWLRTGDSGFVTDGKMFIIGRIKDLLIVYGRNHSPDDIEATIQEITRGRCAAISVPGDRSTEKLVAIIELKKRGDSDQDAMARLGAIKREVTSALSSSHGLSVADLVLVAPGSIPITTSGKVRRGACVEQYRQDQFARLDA

[7] = molecular target: T4, Rac GTPase-activating protein 1 (Homo sapiens, UniProt Q9H0H5); assay: blockers of MgcRacGAP-driven Rac1 GTP hydrolysis – biochemical, ADP Hunter fluorescence, primary and confirmatory, confirmation (AID 624330); type: functional
T4 sequence (Q9H0H5 whole entry): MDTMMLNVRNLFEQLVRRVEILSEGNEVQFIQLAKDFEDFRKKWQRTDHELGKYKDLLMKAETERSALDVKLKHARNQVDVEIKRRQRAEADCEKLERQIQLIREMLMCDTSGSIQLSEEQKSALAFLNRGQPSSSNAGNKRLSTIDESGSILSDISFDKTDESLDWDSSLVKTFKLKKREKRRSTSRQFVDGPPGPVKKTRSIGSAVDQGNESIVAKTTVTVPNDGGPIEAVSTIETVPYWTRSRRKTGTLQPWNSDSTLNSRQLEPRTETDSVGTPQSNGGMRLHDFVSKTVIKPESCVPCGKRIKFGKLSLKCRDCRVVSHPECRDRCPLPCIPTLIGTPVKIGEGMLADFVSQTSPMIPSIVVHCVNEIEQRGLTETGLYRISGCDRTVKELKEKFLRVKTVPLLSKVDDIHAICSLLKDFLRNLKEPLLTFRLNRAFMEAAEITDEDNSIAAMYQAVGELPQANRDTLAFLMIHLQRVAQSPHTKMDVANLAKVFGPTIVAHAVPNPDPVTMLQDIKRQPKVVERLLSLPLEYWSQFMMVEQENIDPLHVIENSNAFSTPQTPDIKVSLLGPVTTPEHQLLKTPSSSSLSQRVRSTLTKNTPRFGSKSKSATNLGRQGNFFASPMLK

[8] = molecular target: Dual specificity tyrosine-phosphorylation-regulated kinase 1A (Rattus norvegicus, UniProt Q63470); type: biochemical, Homo sapiens
[9] = loss of viability in HepG2 cells – cell-based, CellTiter-Glo, cherry-picked, cytotoxicity control for Shn3 inhibitor project, dose response (AID 624134); type: functional
[10] = molecular target: T5, Corticotropin-releasing factor receptor 2/Corticotropin-releasing factor-binding protein (Homo sapiens, UniProt P24387+Q13324); assay: activators of CRF receptor 2 with binding protein – uHTS hits, confirmation (AID 602473); type: functional; conditions: read-out: EC50_Mean
T5 sequence (Q13324 whole entry): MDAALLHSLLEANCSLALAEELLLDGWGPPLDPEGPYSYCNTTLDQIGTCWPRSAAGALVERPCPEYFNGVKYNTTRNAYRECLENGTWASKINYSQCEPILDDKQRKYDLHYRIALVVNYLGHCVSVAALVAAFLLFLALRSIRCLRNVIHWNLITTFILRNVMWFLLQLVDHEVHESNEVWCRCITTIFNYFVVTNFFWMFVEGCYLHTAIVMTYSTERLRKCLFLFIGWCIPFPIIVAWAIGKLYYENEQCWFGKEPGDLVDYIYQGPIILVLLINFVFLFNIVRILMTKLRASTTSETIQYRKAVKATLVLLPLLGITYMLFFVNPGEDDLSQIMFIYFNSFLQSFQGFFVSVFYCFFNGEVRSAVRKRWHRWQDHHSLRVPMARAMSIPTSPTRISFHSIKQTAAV
T5 sequence (P24387 whole entry): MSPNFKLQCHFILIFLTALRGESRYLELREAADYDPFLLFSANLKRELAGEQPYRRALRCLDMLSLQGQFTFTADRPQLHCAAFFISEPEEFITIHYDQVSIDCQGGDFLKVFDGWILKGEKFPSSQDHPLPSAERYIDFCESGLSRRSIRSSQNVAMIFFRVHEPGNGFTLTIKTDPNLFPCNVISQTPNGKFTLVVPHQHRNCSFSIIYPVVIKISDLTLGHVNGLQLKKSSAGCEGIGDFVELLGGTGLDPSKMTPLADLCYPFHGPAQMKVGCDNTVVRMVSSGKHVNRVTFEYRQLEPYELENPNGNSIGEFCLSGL

Cytochrome P450 3A4 = Cytochrome P450 3A4 (Homo sapiens, UniProt P08684);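 further: CYP3A4 tested as one member of a cytochrome P450 panel screen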
[11] = molecular target: Eukaryotic translation initiation factor 4E (Mus musculus, UniProt P63073); assay: blockers of eIF4G binding by eIF4E – biochemical, TR-FRET, dose response (AID 855); type: functional;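 further: potency for disrupting eIF4E binding to eIF4GI seen as loss of FRET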
[12] = molecular target: Heat shock protein HSP 90-alpha (Homo sapiens, UniProt P07900); type: functional, organism-based
INS1 = assay: INS-1E survival protection against cytokine death – cell-based, luminescence, retest, dose response (AID 449756); type: functional; conditions: Rattus norvegicus;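 further: cell death triggered by IL-1 beta plus TNF-alpha plus IFN-gamma mixture; protective hits raise ATP signal compared with cytokine alone wells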
[13] = molecular target: T1, Short transient receptor potential channel 4; assay: calcium entry via TRPC4 opening agents – cell-based, HEK293 TRPC4/mu-opioid, Fluo-4 calcium, dose response (AID 434937); type: functional
[14] = Luminescence Cell-Based Dose Response HTS to Identify Inhibitors of 5'UTR Stem-Loop Driven Prion Protein mRNA Translation in H4 Neuroglioblastoma Cells. [Related pubchem assays: 1827 (Project Summary), 1813 (Primary HTS)]; type: functional
[15] = luciferase reporter signal suppression in cells – H4 neuroglioma cells, luminescence, dose response (AID 1990); type: functional, cell-based
[16] = alpha-synuclein stem-loop luciferase translation blockers – H4 neuroglioma cells, luminescence, confirmation (AID 1988); type: functional, cell-based

Glyceraldehyde-3-phosphate dehydrogenase, sequence (P04406 whole entry, the tested form may be a part): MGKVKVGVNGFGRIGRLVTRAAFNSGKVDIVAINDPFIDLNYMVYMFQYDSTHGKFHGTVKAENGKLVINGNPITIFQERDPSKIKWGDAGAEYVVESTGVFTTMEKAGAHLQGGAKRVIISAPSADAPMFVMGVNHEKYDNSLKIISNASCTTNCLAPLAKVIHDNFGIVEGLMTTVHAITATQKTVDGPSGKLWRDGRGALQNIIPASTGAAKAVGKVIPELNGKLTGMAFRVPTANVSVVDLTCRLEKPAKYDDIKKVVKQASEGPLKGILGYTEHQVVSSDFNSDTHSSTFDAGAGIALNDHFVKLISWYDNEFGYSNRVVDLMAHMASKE
Nonstructural protein 1, sequence (Q194T2 whole entry): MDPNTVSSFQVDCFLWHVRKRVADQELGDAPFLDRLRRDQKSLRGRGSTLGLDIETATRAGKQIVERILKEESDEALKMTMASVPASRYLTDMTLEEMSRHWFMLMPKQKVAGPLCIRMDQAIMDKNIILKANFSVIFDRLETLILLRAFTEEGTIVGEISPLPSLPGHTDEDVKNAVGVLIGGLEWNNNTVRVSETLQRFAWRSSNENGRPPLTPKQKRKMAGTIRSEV
Eukaryotic translation initiation factor 4E, sequence (P63073 whole entry): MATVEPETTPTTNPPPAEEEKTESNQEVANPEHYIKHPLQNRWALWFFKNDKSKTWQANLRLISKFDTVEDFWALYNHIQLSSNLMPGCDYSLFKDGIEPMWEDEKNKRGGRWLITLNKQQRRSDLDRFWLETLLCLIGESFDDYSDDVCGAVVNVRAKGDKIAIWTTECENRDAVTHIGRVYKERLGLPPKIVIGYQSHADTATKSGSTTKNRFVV
Cytochrome P450 3A4, sequence (P08684 whole entry): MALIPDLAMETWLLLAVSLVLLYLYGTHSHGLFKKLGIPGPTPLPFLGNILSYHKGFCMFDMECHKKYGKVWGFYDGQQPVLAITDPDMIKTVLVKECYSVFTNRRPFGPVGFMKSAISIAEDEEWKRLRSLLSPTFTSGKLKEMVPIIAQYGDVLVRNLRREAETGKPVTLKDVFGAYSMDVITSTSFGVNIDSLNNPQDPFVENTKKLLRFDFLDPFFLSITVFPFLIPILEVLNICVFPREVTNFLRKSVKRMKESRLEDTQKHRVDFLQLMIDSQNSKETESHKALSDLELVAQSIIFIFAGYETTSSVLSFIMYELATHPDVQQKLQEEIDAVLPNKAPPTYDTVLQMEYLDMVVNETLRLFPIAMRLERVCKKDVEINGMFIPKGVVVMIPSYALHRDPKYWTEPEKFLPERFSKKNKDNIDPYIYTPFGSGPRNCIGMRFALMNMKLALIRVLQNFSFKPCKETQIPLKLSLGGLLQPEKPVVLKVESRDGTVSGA

CN1CCN(c2cc(N3CCN(C(=O)c4ccco4)CC3)c3c4c(onc24)-c2ccccc2C3=O)CC1
IC50 (Nonstructural protein 1): 15.3 µM (active)

COc1ccc(Nc2nc(N)c3ccccc3n2)c(OC)c1
EC50 [1]: 4.22 µM (active)

O=C1C2C3C=CC(C3)C2C(=O)N1c1n[nH]c(CCc2ccccc2)n1 (centres undefined)
IC50 [2]: > 100 µM (not active)

CCOC(=O)CN1C(=O)S/C(=C\c2ccc(-c3ccc(C(=O)O)c(Cl)c3)o2)C1=O
IC50 [3]: 4.84 µM (active)

CCCC(=O)Nc1nc2ccc(S(=O)(=O)N3CCCCC3)cc2s1
IC50 [4]: > 80 µM (inactive)

NNC(=O)COc1ccc(-c2nccc(-c3ccc(F)cc3)n2)cc1
IC50 [5]: > 80 µM (inactive)

Cc1cccc(NC(=O)CN2C(=O)S/C(=C\c3cccn3-c3cccc(C(=O)O)c3)C2=O)c1
IC50 [3]: 6.83 µM (active)
AC50 [6]: 0.519 µM (active)

COc1ccc(Nc2c3c(nc4ccccc24)CCC3)cc1
EC50 [1]: 4.22 µM (active)

COc1cc(/C=C2\SC(=S)N(NC(=O)c3cccc(O)c3)C2=O)ccc1O
IC50 [7]: 54.8 µM (active)
AC50 [6]: 32 µM (inactive)
AC50 [8]: 6.23 µM (active)

CCOc1ccc(Br)cc1C1=CC(=O)C[C@H](c2ccc(OC)cc2)C1
AC50 [9]: > 70 µM (inactive)
IC50 [4]: > 80 µM (inactive)
EC50 [10]: > 53 µM (inactive)

Cc1c(OC(=O)c2ccc([N+](=O)[O-])cc2)c2c(c[n+]1C)COC(C)(C)OC2
IC50 [3]: 4.14 µM (active)
AC50 (Cytochrome P450 3A4): 7.08 µM (inconclusive)
IC50 [11]: > 64 µM (inactive)

CSCC[C@H](NS(=O)(=O)c1ccc(C(C)=O)cc1)c1nnc2ccccn12
IC50 [3]: 5.88 µM (active)

CC(C)CN(CC(C)C)c1nc(N)c(C#N)c(CC#N)c1C#N
EC50 [1]: 5.96 µM (active)

Cc1cc(N(C)C)ccc1N=Nc1ccc2ncccc2c1
IC50 (Nonstructural protein 1): 9.43 µM (active)

Cc1c(C)c2cccnc2c2ncccc12
AC50 [12]: 3.99 µM (active)
IC50 [4]: > 80 µM (inactive)
AC50 (INS1): 1.57 µM (active)

COc1ccc(/C=C2\SC(=O)NC2=S)cc1OC
AC50 [8]: 9.55 µM (active)

C=CCOC(=O)COc1cc(C)cc2oc(=O)c3c(c12)CCC3
IC50 [5]: > 80 µM (inactive)

O=C1C(Cl)=C(N2CCOCC2)C(=O)N1c1ccnc(Cl)c1
IC50 [2]: > 50 µM (inconclusive)

CCn1cc(CN2CCC(n3nccc3NC(=O)CCCc3ccccc3)CC2)cn1
EC50 [13]: 1.33 µM (active)
EC50 [1]: 1.19 µM (active)

COc1ccc(/C=N/NC(=O)COc2ccccc2-c2ccccc2)cc1
EC50 [14]: 0.483 µM (active)
IC50 [4]: > 80 µM (inactive)
EC50 [15]: 8.05 µM (active)
EC50 [16]: 0.166 µM (active)

CCCc1noc2c1/C(=N\O)CC(CC(C)SCC)C2 (centres undefined)
EC50 [1]: 1.5 µM (active)
